# Experiments:
# [1] = test system: pancreatic adenocarcinoma associated genes; assay: TaqMan Array gene expression in MIAPaCa-2, normalized for GAPDH; assay type: cell-based, Human; settings: Mia-PACA-2, 24 hs, CBD 3.8, MLT 200, AKBA 7.5 micrograms/ml
# Experimental: Total RNA from untreated or CBD, MLT, AKBA alone and in combination treated cell lines was extracted using Rneasy Mini kit (Qiagen, Milan, Italy). One microgram of total RNA from each sample was subjected to reverse transcription in a total volume of 20 μL using the High-Capacity cDNA Archive Kit (Applied Biosystem, Foster City, […], USA) according to the instructions. cDNAs were analyzed by qRT-PCR performed using an IQ5 Multicolor Real time PCR Detection system. Quantitative real-time gene expression was performed with the TaqMan® Array Human Pancreatic Adenocarcinoma 96-well Plate, containing 92 assays to pancreatic adenocarcinoma associated genes and 4 assays to candidate endogenous control genes, was purchased (Thermo Fisher, Grand Island, NY, USA) and used to evaluate the treatments in modulating PDAC-related genes (Table 1). Measurement of different housekeeping genes (GAPDH; HPRT1; GUSB) on the samples was used to normalize mRNA content. The gene expression levels of treated cell lines were expressed as relative fold compared with untreated or vehicle-treated cells.
# To elucidate the molecular events induced by CBD, MLT and AKBA alone and in combination, 92 genes involved in PDAC progression and aggressiveness were evaluated by Taqman Array. Both cell lines were treated with CBD, MLT and AKBA alone and in combination, and the molecular pathways of PDAC associated gene were evaluated.
# Target mRNA levels were normalized for GAPDH expression.
# [2] = cited from earlier work
# [3] = normalized for GAPDH, Akt pathways
# [4] = normalized for GAPDH, Akt-pathways
# [5] = normalized for GAPDH, DNA repair
# [6] = normalized for GAPDH, NfkB pathways
# [7] = normalized for GAPDH, Ras pathways
# [8] = normalized for GAPDH, TGF patways
# [9] = normalized for GAPDH, TGF-patways
# [10] = normalized for GAPDH, angiogenesis
# [11] = normalized for GAPDH, apoptosis
# [12] = normalized for GAPDH, cell cycle
# [13] = normalized for GAPDH, inflammation
# [14] = normalized for GAPDH, proliferation
compound,measurement,setting,value
"CC(=O)O[C@@H]1CC[C@@]2(C)[C@@H](CC[C@]3(C)[C@@H]2C(=O)C=C2[C@@H]4[C@@H](C)[C@H](C)CC[C@]4(C)CC[C@]23C)[C@@]1(C)C(=O)O [AKBA, (3R,4R,4aR,6aR,6bS,8aR,11R,12S,12aR,14aR,14bS)-3-acetyloxy-4,6a,6b,8a,11,12,14b-heptamethyl-14-oxo-1,2,3,4a,5,6,7,8,9,10,11,12,12a, 14a-tetradecahydropicene-4-carboxylic acid]",GAPDH relative expression,[1]; GAPDH is the normalizer,1.00
same,PK3CB relative expression,[1]; [3],0.19
same,PK3CD relative expression,[1]; [3],0.06
same,AKT1 relative expression,[1]; [4],0.18
same,AKT2 relative expression,[1]; [4],0.49
same,AKT3 relative expression,[1]; [4],0.00
same,IGF1 relative expression,[1]; [4],0.00
same,PK3CA relative expression,[1]; [4],0.02
same,PK3R1 relative expression,[1]; [4],0.04
same,BRCA2 relative expression,[1]; [5],0.12
same,MDM2 relative expression,[1]; [5],0.05
same,TP53 relative expression,[1]; [5],0.35
same,HSP90AA1 relative expression,"[1]; normalized for GAPDH, Heat sock protein",0.26
same,NFKB1 relative expression,[1]; [6],0.12
same,NFKB2 relative expression,[1]; [6],0.12
same,REL relative expression,[1]; [6],0.09
same,RELA relative expression,[1]; [6],0.11
same,RELB relative expression,[1]; [6],0.13
same,RHOA relative expression,[1]; [6],0.33
same,RHOB relative expression,[1]; [6],0.06
same,BRAF relative expression,[1]; [7],0.22
same,E2F1 relative expression,[1]; [7],0.17
same,E2F3 relative expression,[1]; [7],0.08
same,E2F4 relative expression,[1]; [7],0.22
same,EGF relative expression,[1]; [7],0.00
same,EGFR relative expression,[1]; [7],0.22
same,ELK1 relative expression,[1]; [7],0.13
same,ERBB2 relative expression,[1]; [7],0.08
same,GRB2 relative expression,[1]; [7],0.46
same,HBEGF relative expression,[1]; [7],0.53
same,KRAS relative expression,[1]; [7],0.11
same,MAP2K1 relative expression,[1]; [7],0.12
same,MAP2K2 relative expression,[1]; [7],0.12
same,MAPK1 relative expression,[1]; [7],0.72
same,MAPK3 relative expression,[1]; [7],0.00
same,RAF1 relative expression,[1]; [7],0.10
same,RB1 relative expression,[1]; [7],0.17
same,SOS1 relative expression,[1]; [7],0.11
same,TGFB2 relative expression,[1]; [8],0.10
same,TGFB3 relative expression,[1]; [8],0.05
same,TGFBR1 relative expression,[1]; [8],0.06
same,SMAD2 relative expression,[1]; [9],0.04
same,SMAD3 relative expression,[1]; [9],0.22
same,SMAD4 relative expression,[1]; [9],0.10
same,TGFA relative expression,[1]; [9],0.02
same,TGFB1 relative expression,[1]; [9],0.13
same,TGFBR2 relative expression,[1]; [9],0.09
same,FIGF relative expression,[1]; [10],0.00
same,VEGFA relative expression,[1]; [10],0.41
same,VEGFB relative expression,[1]; [10],0.16
same,VEGFC relative expression,[1]; [10],0.11
same,BCL2L1 relative expression,[1]; [11],0.28
same,BCL2 relative expression,[1]; [11],0.00
same,BIRC5 relative expression,[1]; [11],0.26
same,CCNA2 relative expression,[1]; [12],0.12
same,CCNB1 relative expression,[1]; [12],0.24
same,CCND1 relative expression,[1]; [12],0.12
same,CCND2 relative expression,[1]; [12],0.00
same,CCNE1 relative expression,[1]; [12],0.12
same,CCNE2 relative expression,[1]; [12],0.10
same,CDC42 relative expression,[1]; [12],0.02
same,CDK2 relative expression,[1]; [12],0.12
same,CDK4 relative expression,[1]; [12],0.30
same,CDKN1A relative expression,[1]; [12],0.34
same,CDKN1B relative expression,[1]; [12],0.12
same,CDKN2A relative expression,[1]; [12],0.14
same,CDKN2B relative expression,[1]; [12],0.24
same,CDKN2C relative expression,[1]; [12],0.14
same,CDKN2D relative expression,[1]; [12],0.06
same,IL6 relative expression,[1]; [13],0.00
same,JAK1 relative expression,[1]; [13],1.32
same,JAK2 relative expression,[1]; [13],0.05
same,JAK3 relative expression,[1]; [13],0.04
same,STAT1 relative expression,[1]; [13],0.34
same,STAT2 relative expression,[1]; [13],0.12
same,STAT3 relative expression,[1]; [13],0.20
same,STAT6 relative expression,[1]; [13],0.12
same,STATSB relative expression,[1]; [13],0.22
same,MMP1 relative expression,"[1]; normalized for GAPDH, invasion",0.02
same,MMP2 relative expression,"[1]; normalized for GAPDH, invasion",0.24
same,MMP3 relative expression,"[1]; normalized for GAPDH, invasion",0.00
same,MMP7 relative expression,"[1]; normalized for GAPDH, invasion",0.04
same,MMP9 relative expression,"[1]; normalized for GAPDH, invasion",0.04
same,PTGS2 relative expression,"[1]; normalized for GAPDH, invasion",0.10
same,RAC1 relative expression,"[1]; normalized for GAPDH, invasion",0.12
same,RAC2 relative expression,"[1]; normalized for GAPDH, invasion",0.01
same,KIT relative expression,[1]; [14],0.00
same,NOTCH1 relative expression,[1]; [14],0.06
same,SRC relative expression,[1]; [14],0.15
same,solubility,[2]; 1:2 solution of DMSO:PBS (pH 7.2),approximately 0.3 mg/ml
same,solubility in aqueous buffers,[2]; aqueous buffers,sparingly soluble
